Source: US10507233B2, “Universal N-glycan binding reagent” (New England Biolabs, Inc., priority 2014, dated 2019)

Biological target: T1, SNAP-Fbs: human Fbs sugar binding domain, wild type, SEQ ID NO: 2, fused to SNAP-tag (fusion SEQ ID NO: 3), on beads (Homo sapiens, UniProt Q9UK22)
T1 construct: SNAP-only beads as control
T1 sequence (Q9UK22 113-296): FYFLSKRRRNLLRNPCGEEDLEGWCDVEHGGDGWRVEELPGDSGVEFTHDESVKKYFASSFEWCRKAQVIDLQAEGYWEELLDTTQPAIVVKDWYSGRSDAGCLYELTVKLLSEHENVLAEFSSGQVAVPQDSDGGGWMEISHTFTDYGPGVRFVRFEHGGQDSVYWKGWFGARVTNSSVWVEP
Assay: Binding of 2-AB labeled M3N2 to SNAP-Fbs beads versus SNAP control beads
Details: 50 picomoles, low salt buffer, SNAP-Fbs beads vs SNAP control beads
Method: SNAP-Fbs is efficiently conjugated to BG beads (SNAP Capture Pull-Down resin (New England Biolabs, Ipswich, Mass.): SNAP-Fbs protein is reacted with BG beads at 4° C. overnight in a DTT-containing buffer (4 mM DTT, 20 mM tris-HCl pH 7.5, 1 mM EDTA, 50 mM NaCl). After the conjugation reaction, SNAP-Fbs beads are washed with 40× bead volume of low salt buffer.
When PNGase F is used to trim N-glycans away from the peptides or proteins, the terminal GlcNAc residue becomes available for modification. A common modification is fluorophore labeling using 2-AB dye. The primary amino group of the dye performs a nucleophilic attack on the carbonyl carbon of the acyclic reducing terminal residue to form a partially stable Schiff's base. […] The conserved terminal GlcNAc residue is thus referred to as the “reducing end” of a glycan species. Upon 2-AB labeling, the carbohydrate ring structure is no longer capable of forming. Fifty picomoles of 2-AB labeled M3N2 in low salt buffer were incubated with SNAP-Fbs beads or SNAP control beads (SNAP Capture beads conjugated to SNAP-tag Purified Protein, New England Biolabs, Ipswich, Mass.).

For `CC(=O)N[C@H]1[C@H](O[C@@H]([C@H](O)[C@H](CNc2ccccc2C(N)=O)NC(C)=O)[C@H](O)CO)O[C@H](CO)[C@@H](O[C@@H]2O[C@H](CO[C@H]3O[C@H](CO)[C@@H](O)[C@H](O)[C@@H]3O)[C@@H](O)[C@H](O[C@H]3O[C@H](CO)[C@@H](O)[C@H](O)[C@@H]3O)[C@@H]2O)[C@@H]1O` [2-AB labeled M3N2], the “binding of 2-AB labeled M3N2” value was 2-AB labeling disrupts the interaction between glycan and Fbs and completely abolishes binding.
